# Measurements reported in patent US9708314B2, “Heterocyclic amide compound” (NISSAN CHEMICAL INDUSTRIES, LTD., priority 2013, dated 2017).
# Assays:
# Leptochloa chinensis = assay: Test Example 3: herbicidal effect by application to foliage (Wagner pot, water depth 0.1-0.5 cm); format: in vivo; settings: Nineteenth Table, application herbicide amount 320 g/ha; for D (herbicidal effect grade): application to foliage
# Procedure, shortened: (§1)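 Plants are raised 14 days from seed in flooded-surface Wagner pots at 25–30 °C, sprayed on stems and leaves with diluted emulsion at a predetermined rate, and rated three weeks on using a 0–5 herbicidal-ratio scale (5 ≥90%).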
# Cyperus difformis = assay: as above; format: in vivo; settings: Nineteenth Table, application herbicide amount 320 g/ha; for E (herbicidal effect grade): application to foliage
# Procedure, shortened: as §1
# [1] = tested on: Echinochloa crus-galli var. crus-galli; assay: as above; format: in vivo; settings: Nineteenth Table, application herbicide amount 320 g/ha; for H (herbicidal effect grade): application to foliage
# Procedure, shortened: as §1
# [2] = tested on: directly sowed Oryza sativa; assay: Test Example 3: effect on crop by application to foliage (Wagner pot, water depth 0.1-0.5 cm); format: in vivo; settings: Nineteenth Table, application herbicide amount 320 g/ha; for b (effect on crop grade): application to foliage
# Procedure, shortened: as §1
# Brassica campestris L. = assay: Test Example 4: effect on crop by application to foliage (diluvial soil, plastic box); format: in vivo; settings: application to foliage; for effect on crop, g (Brassica campestris L.): 320 g/ha
# Procedure, shortened: (§2)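 Greenhouse plants (25° C. to 30° C., 14 d, diluvial soil) receive a foliar spray of water-diluted emulsifiable formulation at defined g/ha. Grading after 3 weeks uses a six-step herbicidal-ratio scale, with 4 covering 70% to <90% and 1 covering 5% to <20%.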
# [3] = tested on: directly sowed Oryza sativa; assay: as above; format: in vivo; settings: application to foliage; for effect on crop, d (directly sowed Oryza sativa): 320 g/ha
# Procedure, shortened: as §2
# Triticum aestivum = assay: as above; format: in vivo; settings: application to foliage; for effect on crop, e (Triticum aestivum): 320 g/ha
# Procedure, shortened: as §2
# Zea mays = assay: as above; format: in vivo; settings: application to foliage; for effect on crop, b (Zea mays): 320 g/ha
# Procedure, shortened: as §2
# [4] = tested on: Beta vulgaris ssp. vulgaris; assay: as above; format: in vivo; settings: application to foliage; for effect on crop, f (Beta vulgaris ssp. vulgaris): 320 g/ha
# Procedure, shortened: as §2
# Glycine max = assay: as above; format: in vivo; settings: application to foliage; for effect on crop, c (Glycine max): 320 g/ha
# Procedure, shortened: as §2
# Galium spurium = assay: Test Example 4: herbicidal effect by application to foliage (diluvial soil, plastic box); format: in vivo; settings: application to foliage; for herbicidal effect, Q (Galium spurium): 320 g/ha
# Procedure, shortened: as §2
# Setaria viridis = assay: as above; format: in vivo; settings: application to foliage; for herbicidal effect, G (Setaria viridis): 320 g/ha
# Procedure, shortened: as §2
# Avena fatua = assay: as above; format: in vivo; settings: application to foliage; for herbicidal effect, I (Avena fatua): 320 g/ha
# Procedure, shortened: as §2
# Lolium multiflorum Lam. = assay: as above; format: in vivo; settings: application to foliage; for herbicidal effect, K (Lolium multiflorum Lam.): 320 g/ha
# Procedure, shortened: as §2
# Stellaria media = assay: as above; format: in vivo; settings: application to foliage; for herbicidal effect, P (Stellaria media): 320 g/ha
# Procedure, shortened: as §2
# Digitaria ciliaris = assay: as above; format: in vivo; settings: application to foliage; for herbicidal effect, F (Digitaria ciliaris): 320 g/ha
# Procedure, shortened: as §2
# [5] = tested on: Echinochloa crus-galli var. crus-galli; assay: as above; format: in vivo; settings: application to foliage; for herbicidal effect, H (Echinochloa crus-galli var. crus-galli): 320 g/ha
# Procedure, shortened: as §2
# Abutilon theophrasti = assay: as above; format: in vivo; settings: application to foliage; for herbicidal effect, M (Abutilon theophrasti): 320 g/ha
# Procedure, shortened: as §2
# Chenopodium album = assay: as above; format: in vivo; settings: application to foliage; for herbicidal effect, O (Chenopodium album): 320 g/ha
# Procedure, shortened: as §2
# Amaranthus retroflexus = assay: as above; format: in vivo; settings: application to foliage; for herbicidal effect, N (Amaranthus retroflexus): 320 g/ha
# Procedure, shortened: as §2
# Veronica persica = assay: as above; format: in vivo; settings: application to foliage; for herbicidal effect, R (Veronica persica): 320 g/ha
# Procedure, shortened: as §2
# Apera spica-venti. = assay: as above; format: in vivo; settings: application to foliage; for herbicidal effect, L (Apera spica-venti.): 320 g/ha
# Procedure, shortened: as §2
# Alopecurus myosuroides = assay: as above; format: in vivo; settings: application to foliage; for herbicidal effect, J (Alopecurus myosuroides): 320 g/ha
# Procedure, shortened: as §2
# [6] = application herbicide amount 320 g/ha
smiles,measurement,setting,value
"Cc1nnc(NC(=O)c2ccc(C(F)(F)F)n3c(Cl)nnc23)o1 [1-013, 3-Chloro-N-(5-methyl-1,3,4-oxadiazol-2-yl)-5-(trifluoromethyl)-[1,2,4]triazolo[4,3-a]pyridine-8-carboxamide]",D (Leptochloa chinensis) herbicidal ratio grade,Leptochloa chinensis,4 (Herbicidal ratio of 70% or more and less than 90%)
same,E (Cyperus difformis) herbicidal ratio grade,Cyperus difformis,3 (Herbicidal ratio of 40% or more and less than 70%)
same,H (Echinochloa crus-galli var. crus-galli) herbicidal ratio grade,[1],3 (Herbicidal ratio of 40% or more and less than 70%)
same,b (directly sowed Oryza sativa) effect on crop grade,[2],0 (Herbicidal ratio of 5% or less (almost no effect))
same,melting point,,238 to 241 °C
same,g (Brassica campestris L.) effect on crop,Brassica campestris L.; [6],0 (Herbicidal ratio of 5% or less (almost no effect))
same,d (directly sowed Oryza sativa) effect on crop,[3]; [6],0 (Herbicidal ratio of 5% or less (almost no effect))
same,e (Triticum aestivum) effect on crop,Triticum aestivum; [6],1 (Herbicidal ratio of 5% or more and less than 20%)
same,b (Zea mays) effect on crop,Zea mays; [6],0 (Herbicidal ratio of 5% or less (almost no effect))
same,f (Beta vulgaris ssp. vulgaris) effect on crop,[4]; [6],3 (Herbicidal ratio of 40% or more and less than 70%)
same,c (Glycine max) effect on crop,Glycine max; [6],0 (Herbicidal ratio of 5% or less (almost no effect))
same,Q (Galium spurium) herbicidal effect,Galium spurium; [6],1 (Herbicidal ratio of 5% or more and less than 20%)
same,G (Setaria viridis) herbicidal effect,Setaria viridis; [6],1 (Herbicidal ratio of 5% or more and less than 20%)
same,I (Avena fatua) herbicidal effect,Avena fatua; [6],0 (Herbicidal ratio of 5% or less (almost no effect))
same,K (Lolium multiflorum Lam.) herbicidal effect,Lolium multiflorum Lam.; [6],1 (Herbicidal ratio of 5% or more and less than 20%)
same,P (Stellaria media) herbicidal effect,Stellaria media; [6],4 (Herbicidal ratio of 70% or more and less than 90%)
same,F (Digitaria ciliaris) herbicidal effect,Digitaria ciliaris; [6],3 (Herbicidal ratio of 40% or more and less than 70%)
same,H (Echinochloa crus-galli var. crus-galli) herbicidal effect,[5]; [6],4 (Herbicidal ratio of 70% or more and less than 90%)
same,M (Abutilon theophrasti) herbicidal effect,Abutilon theophrasti; [6],3 (Herbicidal ratio of 40% or more and less than 70%)
same,O (Chenopodium album) herbicidal effect,Chenopodium album; [6],5 (Herbicidal ratio of 90% or more (almost completely withered))
same,N (Amaranthus retroflexus) herbicidal effect,Amaranthus retroflexus; [6],3 (Herbicidal ratio of 40% or more and less than 70%)
same,R (Veronica persica) herbicidal effect,Veronica persica; [6],3 (Herbicidal ratio of 40% or more and less than 70%)
same,L (Apera spica-venti.) herbicidal effect,Apera spica-venti.; [6],0 (Herbicidal ratio of 5% or less (almost no effect))
same,J (Alopecurus myosuroides) herbicidal effect,Alopecurus myosuroides; [6],1 (Herbicidal ratio of 5% or more and less than 20%)
"CC(C)c1nnc2c(C(=O)Nc3nnnn3C)ccc(Cl)n12 [2-004, 5-Chloro-3-isopropyl-N-(1-methyl-1H-tetrazol-5-yl)-[1,2,4]triazolo[4,3-a]pyridine-8-carboxamide]",melting point,,189 to 190 °C
"Cc1nonc1NC(=O)c1ccc(C(F)(F)F)n2c(C(C)C)nnc12 [3-001, 3-Isopropyl-N-(4-methyl-1,2,5-oxadiazol-3-yl)-5-(trifluoromethyl)-[1,2,4]triazolo[4,3-a]pyridine-8-carboxamide]",melting point,,185 to 186 °C
CCn1ncnc1NC(=O)c1ccc(C(F)(F)F)n2c(C(C)C)nnc12 [4-002],D (herbicidal effect grade),Leptochloa chinensis,4 (Herbicidal ratio of 70% or more and less than 90%)
same,E (herbicidal effect grade),Cyperus difformis,0 (Herbicidal ratio of 5% or less (almost no effect))
same,H (herbicidal effect grade),[1],0 (Herbicidal ratio of 5% or less (almost no effect))
same,b (effect on crop grade),[2],0 (Herbicidal ratio of 5% or less (almost no effect))
same,"effect on crop, g (Brassica campestris L.)",Brassica campestris L.,0 (Herbicidal ratio of 5% or less (almost no effect))
same,"effect on crop, d (directly sowed Oryza sativa)",[3],1 (Herbicidal ratio of 5% or more and less than 20%)
same,"effect on crop, e (Triticum aestivum)",Triticum aestivum,0 (Herbicidal ratio of 5% or less (almost no effect))
same,"effect on crop, b (Zea mays)",Zea mays,0 (Herbicidal ratio of 5% or less (almost no effect))
same,"effect on crop, f (Beta vulgaris ssp. vulgaris)",[4],0 (Herbicidal ratio of 5% or less (almost no effect))
same,"effect on crop, c (Glycine max)",Glycine max,0 (Herbicidal ratio of 5% or less (almost no effect))
same,"herbicidal effect, Q (Galium spurium)",Galium spurium,1 (Herbicidal ratio of 5% or more and less than 20%)
same,"herbicidal effect, G (Setaria viridis)",Setaria viridis,1 (Herbicidal ratio of 5% or more and less than 20%)
same,"herbicidal effect, I (Avena fatua)",Avena fatua,1 (Herbicidal ratio of 5% or more and less than 20%)
same,"herbicidal effect, K (Lolium multiflorum Lam.)",Lolium multiflorum Lam.,0 (Herbicidal ratio of 5% or less (almost no effect))
same,"herbicidal effect, P (Stellaria media)",Stellaria media,3 (Herbicidal ratio of 40% or more and less than 70%)
same,"herbicidal effect, F (Digitaria ciliaris)",Digitaria ciliaris,1 (Herbicidal ratio of 5% or more and less than 20%)
same,"herbicidal effect, H (Echinochloa crus-galli var. crus-galli)",[5],2 (Herbicidal ratio of 20% or more and less than 40%)
same,"herbicidal effect, M (Abutilon theophrasti)",Abutilon theophrasti,5 (Herbicidal ratio of 90% or more (almost completely withered))
same,"herbicidal effect, O (Chenopodium album)",Chenopodium album,4 (Herbicidal ratio of 70% or more and less than 90%)
same,"herbicidal effect, N (Amaranthus retroflexus)",Amaranthus retroflexus,4 (Herbicidal ratio of 70% or more and less than 90%)
same,"herbicidal effect, R (Veronica persica)",Veronica persica,1 (Herbicidal ratio of 5% or more and less than 20%)
same,"herbicidal effect, L (Apera spica-venti.)",Apera spica-venti.,0 (Herbicidal ratio of 5% or less (almost no effect))
same,"herbicidal effect, J (Alopecurus myosuroides)",Alopecurus myosuroides,0 (Herbicidal ratio of 5% or less (almost no effect))
CCn1nc2c(C(=O)Nc3nnc(C)o3)ccc(C(F)(F)F)n2c1=O [6-003],D (herbicidal effect grade),Leptochloa chinensis,5 (Herbicidal ratio of 90% or more (almost completely withered))
same,E (herbicidal effect grade),Cyperus difformis,0 (Herbicidal ratio of 5% or less (almost no effect))
same,H (herbicidal effect grade),[1],1 (Herbicidal ratio of 5% or more and less than 20%)
same,b (effect on crop grade),[2],0 (Herbicidal ratio of 5% or less (almost no effect))
same,"effect on crop, g (Brassica campestris L.)",Brassica campestris L.,0 (Herbicidal ratio of 5% or less (almost no effect))
same,"effect on crop, d (directly sowed Oryza sativa)",[3],0 (Herbicidal ratio of 5% or less (almost no effect))
same,"effect on crop, e (Triticum aestivum)",Triticum aestivum,0 (Herbicidal ratio of 5% or less (almost no effect))
same,"effect on crop, b (Zea mays)",Zea mays,0 (Herbicidal ratio of 5% or less (almost no effect))
same,"effect on crop, f (Beta vulgaris ssp. vulgaris)",[4],1 (Herbicidal ratio of 5% or more and less than 20%)
same,"effect on crop, c (Glycine max)",Glycine max,0 (Herbicidal ratio of 5% or less (almost no effect))
same,"herbicidal effect, Q (Galium spurium)",Galium spurium,1 (Herbicidal ratio of 5% or more and less than 20%)
same,"herbicidal effect, G (Setaria viridis)",Setaria viridis,3 (Herbicidal ratio of 40% or more and less than 70%)
same,"herbicidal effect, I (Avena fatua)",Avena fatua,0 (Herbicidal ratio of 5% or less (almost no effect))
same,"herbicidal effect, K (Lolium multiflorum Lam.)",Lolium multiflorum Lam.,0 (Herbicidal ratio of 5% or less (almost no effect))
same,"herbicidal effect, P (Stellaria media)",Stellaria media,4 (Herbicidal ratio of 70% or more and less than 90%)
same,"herbicidal effect, F (Digitaria ciliaris)",Digitaria ciliaris,4 (Herbicidal ratio of 70% or more and less than 90%)
same,"herbicidal effect, H (Echinochloa crus-galli var. crus-galli)",[5],3 (Herbicidal ratio of 40% or more and less than 70%)
same,"herbicidal effect, M (Abutilon theophrasti)",Abutilon theophrasti,4 (Herbicidal ratio of 70% or more and less than 90%)
same,"herbicidal effect, O (Chenopodium album)",Chenopodium album,3 (Herbicidal ratio of 40% or more and less than 70%)
same,"herbicidal effect, N (Amaranthus retroflexus)",Amaranthus retroflexus,2 (Herbicidal ratio of 20% or more and less than 40%)
same,"herbicidal effect, R (Veronica persica)",Veronica persica,1 (Herbicidal ratio of 5% or more and less than 20%)
same,"herbicidal effect, L (Apera spica-venti.)",Apera spica-venti.,0 (Herbicidal ratio of 5% or less (almost no effect))
same,"herbicidal effect, J (Alopecurus myosuroides)",Alopecurus myosuroides,0 (Herbicidal ratio of 5% or less (almost no effect))
